This passage reports AC50 results from ChEMBL document CHEMBL5291721, “A preclinical secondary pharmacology resource illuminates target-adverse drug reaction associations of marketed drugs” (Nat Commun, 2023).

Broadly, the AC50 is the midpoint of the concentration-response curve, whichever way the signal moves. Low values mean greater potency, high ones weaker potency.

Assay [1] deals with T1, Gastrin/cholecystokinin type B receptor (Homo sapiens, UniProt P32239).
T1 sequence (P32239 whole entry): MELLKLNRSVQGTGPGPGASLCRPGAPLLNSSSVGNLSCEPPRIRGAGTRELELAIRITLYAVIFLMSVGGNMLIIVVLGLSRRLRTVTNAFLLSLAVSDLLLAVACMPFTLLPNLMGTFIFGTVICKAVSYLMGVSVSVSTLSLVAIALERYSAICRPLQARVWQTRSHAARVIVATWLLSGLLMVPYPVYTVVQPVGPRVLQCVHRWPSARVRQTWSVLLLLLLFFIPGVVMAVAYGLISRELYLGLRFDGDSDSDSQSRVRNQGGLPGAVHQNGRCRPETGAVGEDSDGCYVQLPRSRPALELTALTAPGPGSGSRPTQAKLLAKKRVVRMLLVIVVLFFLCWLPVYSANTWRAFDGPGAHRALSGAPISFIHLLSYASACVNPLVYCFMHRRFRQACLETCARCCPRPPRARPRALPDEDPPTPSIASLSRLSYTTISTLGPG

The target in another assay is Cannabinoid receptor 1 (Homo sapiens, UniProt P21554). In kind it is functional, cell-based.
A further assay concerns the target D(1A) dopamine receptor (Homo sapiens, UniProt P21728). The class given is functional, cell-based.
The next assay has as its target T2, Endothelin-1 receptor (Homo sapiens, UniProt P25101).
T2 sequence (P25101 whole entry): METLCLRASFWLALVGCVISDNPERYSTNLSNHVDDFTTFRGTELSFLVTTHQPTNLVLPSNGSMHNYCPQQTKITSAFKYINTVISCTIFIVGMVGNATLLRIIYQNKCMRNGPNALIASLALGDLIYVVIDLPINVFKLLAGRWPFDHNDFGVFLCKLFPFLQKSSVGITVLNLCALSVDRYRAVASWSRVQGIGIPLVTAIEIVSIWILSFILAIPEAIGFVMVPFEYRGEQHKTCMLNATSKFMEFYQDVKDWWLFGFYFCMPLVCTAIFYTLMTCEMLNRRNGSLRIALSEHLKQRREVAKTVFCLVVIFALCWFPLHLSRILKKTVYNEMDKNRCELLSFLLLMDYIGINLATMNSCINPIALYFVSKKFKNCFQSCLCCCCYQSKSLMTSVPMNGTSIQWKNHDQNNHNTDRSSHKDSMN

Another assay addresses T3, Estrogen receptor (Homo sapiens, UniProt P03372).
T3 sequence (P03372 whole entry): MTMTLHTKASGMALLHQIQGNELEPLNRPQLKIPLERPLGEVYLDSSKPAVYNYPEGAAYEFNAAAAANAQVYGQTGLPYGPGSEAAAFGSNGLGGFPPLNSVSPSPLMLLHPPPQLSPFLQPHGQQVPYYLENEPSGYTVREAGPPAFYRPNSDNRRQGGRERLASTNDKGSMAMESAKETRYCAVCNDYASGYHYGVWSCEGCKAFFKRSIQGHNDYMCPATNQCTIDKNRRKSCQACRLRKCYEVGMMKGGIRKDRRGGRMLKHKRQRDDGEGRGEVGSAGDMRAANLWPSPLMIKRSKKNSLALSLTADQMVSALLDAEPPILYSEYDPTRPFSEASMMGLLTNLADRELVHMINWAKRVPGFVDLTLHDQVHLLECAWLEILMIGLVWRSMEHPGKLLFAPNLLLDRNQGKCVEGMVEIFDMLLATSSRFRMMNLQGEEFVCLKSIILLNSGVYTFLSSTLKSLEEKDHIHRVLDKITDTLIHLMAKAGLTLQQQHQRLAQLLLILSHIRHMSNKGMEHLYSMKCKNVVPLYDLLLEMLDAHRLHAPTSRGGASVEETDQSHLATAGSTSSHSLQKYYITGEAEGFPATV

The target in assay [2] is T4, Gamma-aminobutyric acid receptor subunit alpha-1 (Rattus norvegicus, UniProt P62813).
The target of assay [3] is T4, Gamma-aminobutyric acid receptor subunit alpha-1. This is another data set of the same source.
Assay [4] has as its target Vascular endothelial growth factor receptor 2 (Homo sapiens, UniProt P35968). The class given is functional.
For a further assay, the target named is T5, Thromboxane A2 receptor (Homo sapiens, UniProt P21731).
T5 sequence (P21731 whole entry): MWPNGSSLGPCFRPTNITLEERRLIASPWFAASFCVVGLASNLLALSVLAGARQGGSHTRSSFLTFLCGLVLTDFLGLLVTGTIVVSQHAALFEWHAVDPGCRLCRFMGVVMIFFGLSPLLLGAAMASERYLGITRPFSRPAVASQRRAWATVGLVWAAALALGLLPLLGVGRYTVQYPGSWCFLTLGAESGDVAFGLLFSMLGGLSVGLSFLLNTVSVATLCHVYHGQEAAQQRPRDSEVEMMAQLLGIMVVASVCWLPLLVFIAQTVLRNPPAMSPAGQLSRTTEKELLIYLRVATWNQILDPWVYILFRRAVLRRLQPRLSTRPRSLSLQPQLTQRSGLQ

The target in assay [5] is T6, Amine oxidase [flavin-containing] A (Homo sapiens, UniProt P21397).
T6 sequence (P21397 whole entry): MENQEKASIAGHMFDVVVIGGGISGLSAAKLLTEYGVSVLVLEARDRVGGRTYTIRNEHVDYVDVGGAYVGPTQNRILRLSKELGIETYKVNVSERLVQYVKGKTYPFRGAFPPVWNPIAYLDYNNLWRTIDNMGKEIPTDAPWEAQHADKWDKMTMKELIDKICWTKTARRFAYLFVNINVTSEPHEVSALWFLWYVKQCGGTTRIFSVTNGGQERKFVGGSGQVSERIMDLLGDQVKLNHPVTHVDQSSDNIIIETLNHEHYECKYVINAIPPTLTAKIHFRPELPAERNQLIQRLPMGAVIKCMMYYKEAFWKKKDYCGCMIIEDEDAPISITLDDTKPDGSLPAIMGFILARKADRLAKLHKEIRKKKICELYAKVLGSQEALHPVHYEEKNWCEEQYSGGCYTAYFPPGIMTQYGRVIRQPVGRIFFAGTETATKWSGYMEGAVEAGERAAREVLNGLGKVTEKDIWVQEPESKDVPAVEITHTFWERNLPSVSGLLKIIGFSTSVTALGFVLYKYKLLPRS
The class given is functional.

For another assay, the target named is D(3) dopamine receptor (Homo sapiens, UniProt P35462).
Note: assay procedure not described here.

Sequence of D(3) dopamine receptor (P35462 whole entry): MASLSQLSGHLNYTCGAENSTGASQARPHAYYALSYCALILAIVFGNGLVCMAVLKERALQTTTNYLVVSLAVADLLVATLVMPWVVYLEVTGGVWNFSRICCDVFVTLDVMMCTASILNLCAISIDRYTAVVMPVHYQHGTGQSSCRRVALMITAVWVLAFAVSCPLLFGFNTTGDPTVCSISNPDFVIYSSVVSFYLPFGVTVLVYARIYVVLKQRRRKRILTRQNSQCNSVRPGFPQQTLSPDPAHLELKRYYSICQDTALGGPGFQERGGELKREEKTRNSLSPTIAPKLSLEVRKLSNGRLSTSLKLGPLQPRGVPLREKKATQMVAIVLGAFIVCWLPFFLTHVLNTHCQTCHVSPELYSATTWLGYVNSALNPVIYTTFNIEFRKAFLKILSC
Sequence of Cannabinoid receptor 1 (P21554 whole entry): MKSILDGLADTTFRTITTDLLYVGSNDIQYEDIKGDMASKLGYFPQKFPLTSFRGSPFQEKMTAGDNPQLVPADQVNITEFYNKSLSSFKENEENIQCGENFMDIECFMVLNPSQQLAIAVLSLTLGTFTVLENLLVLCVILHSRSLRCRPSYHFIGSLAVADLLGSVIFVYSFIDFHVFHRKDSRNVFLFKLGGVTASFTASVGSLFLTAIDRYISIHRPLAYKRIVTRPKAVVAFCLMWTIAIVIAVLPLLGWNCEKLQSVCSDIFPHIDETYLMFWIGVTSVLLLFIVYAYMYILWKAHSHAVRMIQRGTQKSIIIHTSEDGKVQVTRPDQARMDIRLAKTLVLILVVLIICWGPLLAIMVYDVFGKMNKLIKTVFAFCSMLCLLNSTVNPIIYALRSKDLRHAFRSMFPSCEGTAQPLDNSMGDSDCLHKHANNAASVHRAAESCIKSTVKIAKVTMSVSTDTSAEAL
Sequence of D(1A) dopamine receptor (P21728 whole entry): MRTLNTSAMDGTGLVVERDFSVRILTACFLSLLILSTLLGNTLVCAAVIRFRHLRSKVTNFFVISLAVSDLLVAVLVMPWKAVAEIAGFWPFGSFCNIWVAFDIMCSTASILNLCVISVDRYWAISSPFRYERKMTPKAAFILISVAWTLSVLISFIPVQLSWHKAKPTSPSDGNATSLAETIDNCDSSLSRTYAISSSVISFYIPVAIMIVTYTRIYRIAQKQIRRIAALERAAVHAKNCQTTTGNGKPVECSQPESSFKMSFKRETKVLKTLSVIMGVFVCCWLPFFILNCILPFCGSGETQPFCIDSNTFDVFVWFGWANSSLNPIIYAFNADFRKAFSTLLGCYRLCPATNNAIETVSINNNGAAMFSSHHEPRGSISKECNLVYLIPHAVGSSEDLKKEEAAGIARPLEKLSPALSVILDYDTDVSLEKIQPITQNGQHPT
Sequence of Vascular endothelial growth factor receptor 2 (P35968 whole entry): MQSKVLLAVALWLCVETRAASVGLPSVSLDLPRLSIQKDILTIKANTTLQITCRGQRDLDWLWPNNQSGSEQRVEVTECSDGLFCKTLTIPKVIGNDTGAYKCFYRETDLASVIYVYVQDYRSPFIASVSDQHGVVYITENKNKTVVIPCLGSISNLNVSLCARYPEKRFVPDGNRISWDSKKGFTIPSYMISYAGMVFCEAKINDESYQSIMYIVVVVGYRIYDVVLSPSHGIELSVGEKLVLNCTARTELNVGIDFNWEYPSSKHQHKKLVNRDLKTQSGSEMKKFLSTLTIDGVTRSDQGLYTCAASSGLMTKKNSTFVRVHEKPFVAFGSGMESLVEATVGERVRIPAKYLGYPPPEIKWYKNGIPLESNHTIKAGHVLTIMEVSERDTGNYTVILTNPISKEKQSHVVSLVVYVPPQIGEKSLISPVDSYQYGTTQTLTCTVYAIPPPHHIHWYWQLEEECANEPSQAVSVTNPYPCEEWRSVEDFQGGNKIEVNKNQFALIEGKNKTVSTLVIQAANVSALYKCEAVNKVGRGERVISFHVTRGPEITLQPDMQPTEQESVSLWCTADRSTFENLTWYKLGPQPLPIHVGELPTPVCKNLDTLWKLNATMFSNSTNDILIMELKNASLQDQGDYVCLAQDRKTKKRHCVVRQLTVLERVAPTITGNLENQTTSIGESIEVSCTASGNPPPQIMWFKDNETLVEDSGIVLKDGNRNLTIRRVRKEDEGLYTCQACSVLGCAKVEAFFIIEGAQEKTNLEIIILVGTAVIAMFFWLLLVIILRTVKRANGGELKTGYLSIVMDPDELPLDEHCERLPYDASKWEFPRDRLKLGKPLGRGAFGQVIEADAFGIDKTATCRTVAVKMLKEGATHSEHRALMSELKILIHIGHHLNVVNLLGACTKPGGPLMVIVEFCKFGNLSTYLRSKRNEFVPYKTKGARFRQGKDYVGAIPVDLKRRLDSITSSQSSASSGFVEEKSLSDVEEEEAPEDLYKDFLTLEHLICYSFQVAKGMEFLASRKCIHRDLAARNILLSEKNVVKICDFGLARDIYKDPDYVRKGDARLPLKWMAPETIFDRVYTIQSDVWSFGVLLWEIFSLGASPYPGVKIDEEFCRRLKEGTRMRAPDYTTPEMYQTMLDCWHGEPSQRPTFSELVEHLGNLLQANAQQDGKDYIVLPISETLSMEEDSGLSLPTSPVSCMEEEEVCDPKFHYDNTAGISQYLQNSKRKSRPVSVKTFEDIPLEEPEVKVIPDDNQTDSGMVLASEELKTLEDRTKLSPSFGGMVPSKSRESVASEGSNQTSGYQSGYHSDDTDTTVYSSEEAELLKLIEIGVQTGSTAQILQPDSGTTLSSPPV
T4 sequence (P62813 whole entry): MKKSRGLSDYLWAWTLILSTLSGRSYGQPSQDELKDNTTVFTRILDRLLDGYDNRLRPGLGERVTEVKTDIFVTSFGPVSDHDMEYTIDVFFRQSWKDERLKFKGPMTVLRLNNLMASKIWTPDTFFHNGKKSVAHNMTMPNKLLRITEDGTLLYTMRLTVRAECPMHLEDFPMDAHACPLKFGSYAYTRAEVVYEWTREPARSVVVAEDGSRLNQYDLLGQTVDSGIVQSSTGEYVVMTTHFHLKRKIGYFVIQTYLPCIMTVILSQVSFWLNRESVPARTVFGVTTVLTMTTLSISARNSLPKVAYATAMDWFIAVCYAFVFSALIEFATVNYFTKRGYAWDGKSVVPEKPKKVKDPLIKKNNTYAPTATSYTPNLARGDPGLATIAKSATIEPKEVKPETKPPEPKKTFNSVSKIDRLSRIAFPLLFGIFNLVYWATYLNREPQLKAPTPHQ

For the compound `Cc1ccc(C)c(OCCCC(C)(C)C(=O)O)c1` [GEMFIBROZIL], the concentration at half-maximal activity (AC50) in [1] was > 30 µM; at Cannabinoid receptor 1, > 30 µM; on D(1A) dopamine receptor it was > 10 µM; on Endothelin-1 receptor, > 30 µM; at Estrogen receptor, > 30 µM; in assay [2] it was > 10 µM. Moreover, the AC50 in [3] was > 30 µM; in [4] it was > 30 µM; at Thromboxane A2 receptor, > 30 µM; in [5], > 10 µM; at D(3) dopamine receptor, > 10 µM.

As to `CCCc1nc2c(C)cc(-c3nc4ccccc4n3C)cc2n1Cc1ccc(-c2ccccc2C(=O)O)cc1`, the AC50 in assay [1] was > 30 µM; at Cannabinoid receptor 1, > 10 µM; at D(1A) dopamine receptor, > 30 µM; at Endothelin-1 receptor it was > 30 µM; on Estrogen receptor, > 30 µM; in [2], > 30 µM. Further, the AC50 is > 30 µM in assay [3]; > 10 µM in assay [4]; 18.1 µM at Thromboxane A2 receptor; > 30 µM in [5]; > 30 µM at D(3) dopamine receptor.

In the case of `O=C1Cc2cc(CCN3CCN(c4nsc5ccccc45)CC3)c(Cl)cc2N1` [ZIPRASIDONE], the AC50 in assay [1] is > 30 µM; at Cannabinoid receptor 1, > 30 µM; at Endothelin-1 receptor, > 30 µM; at Estrogen receptor, > 30 µM; in assay [2], > 10 µM; in [3], > 30 µM. Moreover, the AC50 in assay [4] was 11.2 µM; on Thromboxane A2 receptor it was > 30 µM; in assay [5], > 10 µM.

For the compound `Cc1cc(=O)[nH]c(=S)[nH]1` [METHYLTHIOURACIL], the half-maximal activity concentration (AC50) (on Estrogen receptor; in assay [3]; in assay [4]) was > 30 µM throughout.

`CC[C@@H]1C[C@]1(NC(=O)[C@@H]1C[C@@H]2CN1C(=O)[C@H](C(C)(C)C)NC(=O)OCC(C)(C)CCCCc1cccc3c1CN(C3)C(=O)O2)C(=O)NS(=O)(=O)C1CC1`: the results for the AC50 (on Estrogen receptor; in [3]; in assay [4]) were > 30 µM, > 30 µM and 16.3 µM, respectively.

`O=C(O)Cc1ccccc1Oc1ccc(Cl)cc1Cl` [FENCLOFENAC]: the AC50 in [1] is > 30 µM; on Cannabinoid receptor 1, > 30 µM; on D(1A) dopamine receptor, > 30 µM; at Endothelin-1 receptor it was > 30 µM; on Estrogen receptor, > 30 µM; in assay [2] it was > 10 µM. For the same compound, the AC50 in assay [3] was > 30 µM; in [4] it was > 30 µM; at Thromboxane A2 receptor, > 30 µM; in [5] it was > 10 µM; on D(3) dopamine receptor, > 10 µM.

In the case of `Cc1cc(=O)oc2cc(O)ccc12` [HYMECROMONE], the half-maximal activity concentration (AC50) at Estrogen receptor was > 30 µM; in assay [3] it was > 30 µM; in assay [4], 25.4 µM.

As for `Nc1cccc2c1C(=O)N(C1CCC(=O)NC1=O)C2=O` (centres undefined) [POMALIDOMIDE], the AC50 (on Estrogen receptor; in assay [3]; in [4]) was > 30 µM in each case.
